Experimental data taken from US20090028925A1, “Novel Phosphinic Acid-Containing Thyromimetics” (priority 2005, published 2009).
Blank lines part the entries; values can stand above or below the compound they belong to.

How the values were obtained:
[1] = rodent models and monkeys; cited from earlier work
[2] = in the monkey; cited from earlier work
[3] = effects on cholesterol and TSH at the same or not pharmacologically different doses; cited from earlier work
human hepatoma cells = settings: via thyroid hormone receptor activation; cited from earlier work
serum cholesterol = assay: Subacute study in cholesterol-fed rats, IP: serum cholesterol; type: in vivo; settings: IP once-a-day for seven days
[4] = test system: liver mitochondrial glycerol phosphate dehydrogenase (mGPDH) activity; assay: Subacute study in normal rats, continuous infusion: liver mGPDH activity; type: in vivo, rats (Sprague-Dawley); settings: continuous infusion 1 mg/kg/day
Excerpt: (§1) Efficacy endpoints include serum cholesterol, liver mitochondrial glycerol phosphate dehydrogenase (mGPDH) activity and the expression of relevant liver genes (e.g., the LDL-receptor, apoB, cpt-1, spot14 and apoAI). Safety parameters include heart weight, heart rate, heart mGPDH activity, the expression and key genes involved in cardiac structure and function (e.g., Serca2, HCN2, Kv1.5, MHCα, MHCβ, Alpha1c), and standard plasma chemistry analysis (liver enzymes, electrolytes, creatinine). Endocrine effects are monitored by analysis of serum thyroid stimulating hormone (TSH). [Taylor et al., Mol Pharmacol 52(3): 542-7 (1997); Weitzel et al., Eur J Biochem 268(14):4095-4103 (2001)]
(§2) Methods: mGPDH activity was analyzed in isolated mitochondria using 2-(4-iodophenyl)-3-(4-nitrophenyl)-5-phenyl tetrazolium chloride as the terminal electron acceptor (Gardner R S, Analytical Biochemistry 59:272 (1974)). Commercially available GPDH was used in each assay as a standard (Sigma, St. Louis, Mo.). Changes in levels of mRNA for liver and heart genes are analyzed using reverse transcriptase followed by real-time PCR analysis. The analysis is performed using an iCycler instrument (Biorad) and appropriate primers by means of standard methodology [e.g., Schwab D A et al. (2000) Life Sciences 66: 1683-94]. The amounts of mRNA are normalized to an internal control, typically, cyclophilin. Serum TSH is measured using an enzyme immunoassay (EIA) kit designed for rat TSH (Amersham Pharmacia Biotech, Arlington Heights, Ill.).
(§3) Normal rats (Sprague-Dawley) were maintained on a standard diet. […] The compounds were brought up to an appropriate volume using PBS and BSA to maintain solubility within the pump. The compounds were chemically stable in the excipient at 37° C. for 7 days.
(§4) Values are expressed as percent of control. (Table 4)

[5] = Continuous infusion study in rats on a cholesterol-containing diet; type: in vivo; settings: continuous infusion 1 mg/kg/day
Method: Screening for thyromimetic activity was performed in normal rats maintained on a cholesterol-containing diet. Compounds were administered by continuous infusion using an osmotic pump at 1 mg/kg/day.

[6] = Subacute study in cholesterol-fed rats, IP: heart weight and heart mGPDH activity
Method: The cholesterol-fed rat is an animal model of hypercholesterolemia generated by feeding the animals a diet with high cholesterol content.
Serum cholesterol values were assessed and the animals randomized into groups for treatment.

[7] = Tissue distribution and pharmacokinetics following IP administration to normal rats; type: in vivo, SD rats; settings: 10 mg/kg IP
Excerpt: At pre-selected time points following dosing, the rats were anesthetized using iso-fluorane and the peritoneal cavity was then opened and a blood sample was obtained from the abdominal vena cava. In addition, liver, kidney, and heart were excised and immersed in 3 volumes of cold 60% acetonitrile. The blood samples were briefly centrifuged and the plasma fraction was then extracted with 1.5 volumes of methanol, processed, and analyzed by LC-UV as described in Example G. The frozen liver, kidney, and heart tissue were homogenized in 60% v/v acetonitrile, centrifuged, and then analyzed by LC-UV. Pharmacokinetic parameters and AUC of the plasma and tissue concentration-time profiles were determined noncompartmentally by WinNonLin.

[8] = Subacute study in normal rats, continuous infusion: heart weight; type: in vivo, rats (Sprague-Dawley); settings: continuous infusion 1 mg/kg/day
Excerpt: as §1, §3, §4

heart mGPDH activity = assay: Subacute study in normal rats, continuous infusion: heart mGPDH activity; type: in vivo, rats (Sprague-Dawley); settings: continuous infusion 1 mg/kg/day
Excerpt: as §1, §2, §3, §4

liver triglycerides = assay: Hepatic triglyceride content in normal rats, chronic infusion; type: in vivo; settings: normal rats chronically infused for 7 days
Procedure: Normal rats were chronically infused with Compound 7 for 7 days. Liver triglycerides were analyzed following lipid extraction by the Bligh Dyer method (Bligh E G and Dyer W J, A rapid method of total lipid extraction and purification. Can J Med. Sci. 1959 (August); 37(8):911-7, incorporated herein by reference). Total triglycerides were analyzed in the liver extracts by an enzymatic assay (Thermo Electron Corporation). Total lipid was normalized to initial liver weight and triglyceride content was normalized to liver weight. […] There was a 4% reduction in liver triglycerides for this group and the results were not statistically significant.

[9] = Cardiovascular activity in the Sprague Dawley rat (HR, LV dP/dt, aortic pressure, heart weight); type: in vivo; settings: SD rats, 7 days
Excerpt: Method: […] The control group (n=6) was given vehicle only. […] On the 7th day after the start of dosing, animals were anesthetized with Isofluorane and the left ventricle cannulated with a high fidelity catheter tip transducer via the right carotid artery. Left ventricular pressure, its first derivative (LVdP/dt), lead I ECG, and heart rate (HR) triggered off the ECG waveform, were digitally recorded. LV dP/dt is a well accepted measure of ionotropic state. Systolic and diastolic aortic pressures were measured by retracting the catheter into the proximal aorta.

[10] = Whole animal resting oxygen consumption; type: in vivo, Sprague Dawley rats
Procedure: Thermogenesis is a measurement of energy consumption. Compounds that increase thermogenesis are likely to increase caloric expenditure and thereby cause body weight loss and its associated benefits to metabolic status (e.g., insulin sensitivity). Thermogenesis is assessed in subcellular fractions of various tissues, isolated cells, whole tissues, or in whole animals using changes in oxygen consumption as the endpoint. Oxygen is used up when calories are burned by various metabolic processes. Methods: Animals are dosed once or several times a day via a parenteral or oral route for a treatment period ranging from 1 day to several weeks. Oxygen consumption is measured following a single or multiple days of treatment. In one assay, whole animal oxygen consumption is measured using an indirect calorimeter (Oxymax, Columbus Instruments, Columbus, Ohio). Animals are removed from their cages and placed in the chambers. The resting oxygen consumption is measured in animals during periods of inactivity as measured by activity monitors. The oxygen consumption is calculated based on the flow through the chamber and the difference in oxygen partial pressures at the inflow and outlet ports. Carbon dioxide (CO2) efflux is also measured in parallel using a CO2 electrode. […] Rats were placed in the FoxBox apparatus (Sable Systems, Las Vegas, Nev.), allowed to acclimate and the resting oxygen consumption was measured. The oxygen consumption rates were compared to pre-dose measurements taken on each individual animal. […] Thus, the compounds of the present invention are useful in increasing oxygen consumption.

plasma cholesterol = assay: Cholesterol lowering in hypercholesterolemic rats; type: in vivo; settings: Rattus norvegicus, po; delivered p.o. (0.5 mg/kg/d); percentage change from pre-dose cholesterol; read-out: % Cholesterol Lowering
Glucose in ZDF rats = type: in vivo
Procedure: The decrease was dose dependent. Blood glucose levels at those doses corresponded to 442 mg/dL and 243 mg/dL, respectively. Similar changes were also evident at two weeks, post-treatment.

[11] = design: species or system rats; settings: rat, in vivo
Procedure: The oral bioavailability (OBAV) of Compound 12-1, a bis POM prodrug of Compound 7, was estimated by comparison of the dose-normalized area under the curve (AUC) of the plasma concentration-time profile of Compound 7 following IV and PO administration of Compound 7 and Compound 12-1, respectively, to normal rats.
Method: Groups of non-fasted male SD rats were administered either 5 mg/kg of Compound 7 by IV bolus or 20 mg/kg of Compound 12-1 by oral gavage. Prior to drug administration, the rats were catheterized at the tail artery to facilitate blood collection. Plasma samples were obtained at pre-specified time points following dosing, extracted with 1.5 volumes of methanol, and then assayed by an LC-UV method using a C18 column eluted with a gradient of 20% to 45% v/v acetonitrile in a potassium phosphate buffer pH 6.2 over 15 min with UV absorbance monitoring at 280 nm. The AUC values were determined noncompartmentally from the plasma concentration-time plots by trapezoidal summation to the last measurable time point.
Plasma levels of compound were analyzed by HPLC and the AUCs for the i.v. dose of 5 mg/kg and the p.o. dose of 20 mg/kg were compared. The maximum OBAV for Compound 19-2 was 0.003%. Typically, compounds that are taken forward as an oral drug candidate have OBAV values of at least 15-20%, when tested in an animal model. This minimal requirement for OBAV in a genetically homogenous model system insures that exposure can be accurately monitored when humans are treated with the compound. Furthermore, in a genetically variable background such as humans, the variability for a compound with low OBAV in genetically homogenous model systems, can be widely variable, leading some subjects to have much higher than anticipated exposure, while other subjects have no exposure.

[12] = rat, in vivo, 28 days
Procedure: Compound 18 was administered at doses up to 5 mg/kg/d. Compound cis-13-1 was administered at doses up to 50 mg/kg/d. We reasoned that the ZDF rat, as a metabolically challenged animal model, would be more sensitive to the potential adverse cardiac effects of thyromimetics than a normal, cholesterol-fed rat. At sacrifice, heart rate, and the first derivative of left ventricular pressure (LV dP/dt) were measured with a Millar catheter inserted into the left ventricle.

SMILES: CC(C)c1cc(Oc2c(Cl)cc(CC(=O)O)cc2Cl)ccc1O [3,5-dichloro-4-[4-hydroxy-3-(1-methylethyl)phenoxy]benzeneacetic acid]
weight loss in animals [1]: weight loss
Lp(a) levels [2]: decrease Lp(a) levels
TSH levels [3]: dose-dependently lower
cholesterol levels [3]: dose-dependently lower

SMILES: Cc1cc(NC(=O)C(=O)O)cc(C)c1Oc1ccc(O)c(C(C)C)c1 [CGS23425, [[4-[4-hydroxy-3-(1-methylethyl)phenoxy]-3,5-dimethylphenyl]amino]oxo acetic acid]
apoAI expression (human hepatoma cells): increased apoAI expression

increase of LV dP/dt ([5]; end-of-life): 71%
left ventricular weight ([5]; end-of-life): increased
Cardiac GPDH activity ([6]; IP, 1 mg/kg/day): increased
Heart AUC [7]: 27.6 nmol·h/g
Kidney AUC [7]: 1.1 nmol·h/g
Liver AUC [7]: 48.5 nmol·h/g
AUC ([7]; male, SD, rat, plasma): 2800 ng·h/mL
Cmax ([7]; male, SD, rat, plasma): 3490 ng/mL
Tmax ([7]; male, SD, rat, plasma): 20 min
CL/F ([7]; male, SD, rat, plasma, read-out: Cl(observed)/F (converted)): 56 mL/min/kg
Vd/F ([7]; male, SD, rat, plasma, read-out: Vz(observed)/F): 2.2 L/kg
AUMClast ([7]; plasma): 1.7683 μg * hr^2/mL
Tlast ([7]; plasma): 2 h
Heart Weight [8]: 134% of control
SMILES: Cc1cc(OCC(=O)O)cc(C)c1Cc1ccc(O)c(C(C)C)c1 [Compound 17, [3,5-dimethyl-4-(4′-hydroxy-3′-iso-propylbenzyl)phenoxy]acetic acid, reference compound]
doses that significantly decreased serum cholesterol (serum cholesterol): 0.1 to 1 mg/kg/day
Liver GPDH [4]: 426% of control
increase of systolic and diastolic blood pressure [5]: 30%
cholesterol ([5]; day 7): significant decrease in cholesterol
increase of heart rate ([5]; day 7): 40%
cholesterol ([5]; day 14): no significant decrease in cholesterol was observed
cardiac hypertrophy ([6]; IP once-a-day for seven days): cardiac hypertrophy was observed
Heart GPDH (heart mGPDH activity): 277% of control

SMILES: N[C@@H](Cc1ccc(Oc2cc(I)c(O)c(I)c2)c(I)c1)C(=O)O [Compound T3, 3,3′,5′-triiodothyronine, reference compound]
Liver GPDH [4]: 406% of control
reduction in liver triglycerides (liver triglycerides): 4%
Heart Weight [8]: 146% of control
Heart GPDH (heart mGPDH activity): 284% of control

OBAV when AUC's of Compound cis-13-1 are used [11]: 25%
OBAV when comparing the AUC's of Compound 7 [11]: 40-50%
TI Improvement over Compound 18, ED15 HR ([12]; ZDF): >39
TI Improvement over Compound 18, ED25 LV dP/dt ([12]; ZDF): >102
calculated TI with respect to LV dP/dt [12]: > 10,000
SMILES: Cc1cc(OC[P@@]2(=O)OCC[C@@H](c3cccc(Cl)c3)O2)cc(C)c1Cc1ccc(O)c(C(C)C)c1 [Compound cis-13-1]
HR, LV dP/dt, systolic and diastolic aortic pressures ([9]; oral gavage 1, 5, 10, 30, 50 mg/kg/day): not significantly different compared to vehicle treated animals
heart weight or heart weight/body weight ratios ([9]; oral gavage 1-50 mg/kg/day): no significant changes in heart weight
Oxygen consumption following treatment, % of the pre-dose rate ([10]; 3 mg/kg/d orally for 14 days): 116%
Oxygen consumption following treatment, % of the pre-dose rate ([10]; 10 mg/kg/d orally for 14 days): 125%
Oxygen consumption following treatment, % of the pre-dose rate ([10]; 30 mg/kg/d orally for 14 days): 132%
change in vivo at 0.5 mg/kg/day (plasma cholesterol): -31.8%
water consumption (Glucose in ZDF rats): dose-dependent decrease in the water consumption
Plasma glucose at sacrifice (Glucose in ZDF rats; 4 weeks of treatment, decreased from 618 mg/dL): 437 mg/dL
Blood glucose levels (Glucose in ZDF rats; 4 weeks of treatment, versus 442 mg/dL): 243 mg/dL
calculated TI with respect to heart rate [12]: > 3900
